{
  "source": "patent US20170119769A1",
  "about": "“SCAFFOLDS FOR INHIBITORS OF MENIN-MLL INTERACTIONS” (THE TRUSTEES OF THE UNIVERSITY OF PENNSYLVANIA, priority 2014, published 2017)",
  "key": {"[1]": {"system": "menin-expressing MEF cells", "assay": "Cell growth of menin-expressing MEFs", "format": "cell-based, mouse", "conditions": "increasing concentrations from day 1; counted after six days of treatment", "description": "(§1) FIG. 15. Menin inhibition antagonizes menin mediated suppression of cell proliferation. […] Vector and menin-expressing MEFs (inset) were seeded at 0.25×10^6 cells/10 cm dish on day 0, treated with either DMSO or increasing concentrations of MI-2-2 from day 1 as indicated, and counted after six days of treatment.\n(§2) Vector and menin-expressing MEFs (FIG. 15, inset) were seeded at 0.25×10^6 cells/10 cm dish on day 0, treated with either DMSO or increasing concentrations of MI-2-2 from day 1 as indicated, and counted after six days of treatment. Thus, inhibition of menin antagonizes menin mediated suppression of cell proliferation."}, "[2]": {"system": "menin-null (vector) MEF cells", "assay": "Cell growth of menin-null (vector) MEFs", "format": "cell-based, mouse", "conditions": "increasing concentrations from day 1; counted after six days of treatment", "description": "as §1, §2"}, "[3]": {"system": "GLP1 receptor", "assay": "GLP1 receptor expression in human islets (real time quantitative PCR)", "format": "cell-based", "conditions": "50 nM, 200 nM or 500 nM for 2 days, vs DMSO", "description": "FIG. 16. Menin inhibition increases expression of the GLP1 receptor Human islets were cultured in a humidified incubator with 5% CO2 at 37° C. After 24 hours, the islets were treated with vehicle control (DMSO) or varying concentrations of MI-2-2 (50 nM, 200 nM or 500 nM) for 2 days. The islets were harvested and. RNA was isolated and was reverse transcribed to cDNA. cDNA was quantitated by real time quantitative PCR and normalized using β-actin as endogenous control.\nMenin inhibition also increases expression of GLP1 receptor, which is the receptor mediating the pro-islet incretin's ability to reduce blood glucose (FIG. 16). Human islets were procured from the Islet Transplantation Center, University of Pennsylvania and cultured in a humidified incubator with 5% CO2 at 37° C. After 24 hours, the islets were treated with vehicle control (DMSO) or varying concentrations of MI-2-2 (50 nM, 200 nM or 500 nM) for 2 days. […] RNA was isolated using the RNeasy Mini Kit (Qiagen, Germantown, Md.) and was reverse transcribed to cDNA using the SuperScript® III Reverse Transcriptase (Life Technologies, Grand Island, N.Y.). cDNA was quantitated by real time quantitative PCR using QuantiTect SYBR® Green (Qiagen, Germantown, Md.) on a 7500 Fast Real time PCR system (AppliedBiosystems, Life Technologies, Grand Island, N.Y.) and normalized using β-actin as endogenous control."}, "[4]": {"system": "murine islets", "assay": "Proliferation (Ki67) in isolated murine islets", "format": "cell-based, C57BL/6J mice", "description": "FIG. 14. Menin inhibitor (MI-2-2) increases proliferation in murine islets, as evidenced by increased number of cells positive for the proliferation marker Ki67. […] Isolated murine islets were pre-cultured for one day before treatment with drug or vehicle.\nThe ability of MI-2-2 to stimulate cell growth was further tested in murine islets isolated from C57BL/6J mice (Jackson Laboratories, Bar Harbor, Me.)."}},
  "note": "“Also recorded” adds a separate entry of the source.",
  "data": [
    {"smiles": "CC1(C)CN=C(N2CCN(c3ncnc4sc(CC(F)(F)F)cc34)CC2)S1", "note": "[MI-2-2]", "values": [
      {"measurement": "cell growth of menin-expressing MEFs", "setting": "[1]", "result": "increased cell growth in menin MEFs in a concentration dependent manner; also recorded: increases proliferation of menin-expressing MEF cells"},
      {"measurement": "cell growth of menin-null (vector) MEFs", "setting": "[2]", "result": "did not do so in vector MEFs; also recorded: not menin-null (vector) cells"},
      {"measurement": "expression of GLP1 receptor relative to β-actin expression", "setting": "[3]", "result": "about 2 fold"},
      {"measurement": "Ki67 staining in murine islets", "setting": "[4]; 500 nM for two days, compared with vehicle control", "result": "increased Ki67 staining"},
      {"measurement": "Ki67 positive cells per unit area in murine islets", "setting": "[4]; treatment for 2 days, concentration dependence", "result": "increased the number of proliferating cells in a concentration dependent manner; also recorded: dose dependent increase"}
    ]}
  ]
}
